Source: patent publication US7501418B2, “Fused heterocyclic isoxazoline derivatives and their use as anti-depressants” (Janssen Pharmaceutica, N.V., priority 2002, dated 2009)
Counter-ions that a name gives are not always drawn. Like-named read-outs stand apart in the source and are kept apart here.

Assays:
[1] = biological target: T1, hα2C receptor (Homo sapiens, UniProt P18825); experiment: Radioligand binding experiment for α2C-adrenergic receptor ([3H]-raulwolscine)
T1 construct: expressed in transfected cells
T1 sequence (P18825 1-462): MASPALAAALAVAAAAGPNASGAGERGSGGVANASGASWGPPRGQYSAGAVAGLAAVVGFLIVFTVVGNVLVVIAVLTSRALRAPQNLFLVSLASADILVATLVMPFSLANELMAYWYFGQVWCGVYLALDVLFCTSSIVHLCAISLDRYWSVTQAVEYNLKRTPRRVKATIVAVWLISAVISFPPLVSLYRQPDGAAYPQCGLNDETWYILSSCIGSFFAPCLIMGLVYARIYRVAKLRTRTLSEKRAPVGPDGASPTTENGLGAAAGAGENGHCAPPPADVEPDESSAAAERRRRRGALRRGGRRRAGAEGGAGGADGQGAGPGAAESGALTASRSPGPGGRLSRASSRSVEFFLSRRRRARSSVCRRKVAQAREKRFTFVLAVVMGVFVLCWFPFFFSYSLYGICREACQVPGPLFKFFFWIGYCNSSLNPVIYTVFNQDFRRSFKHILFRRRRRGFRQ
Protocol: (§1) In general, a low concentration of a radioligand with a high binding affinity for a particular receptor or transporter is incubated with a sample of a tissue preparation enriched in a particular receptor or transporter or with a preparation of cells expressing cloned human receptors in a buffered medium. During the incubation, the radioligand binds to the receptor or transporter. When equilibrium of binding is reached, the receptor bound radioactivity is separated from the non-bound radioactivity, and the receptor- or transporter-bound activity is counted. The interaction of the test compounds with the receptor is assessed in competition binding experiments. Various concentrations of the test compound are added to the incubation mixture containing the receptor- or transporter preparation and the radioligand. The test compound in proportion to its binding affinity and its concentration inhibits binding of the radioligand. The radioligand used for hα2A, hα2B and hα2C receptor binding was [^3H]-raulwolscine and for the h5-HT transporter was [^3H]paroxetine. CHO cells, stabile transfected with human adrenergic-α2A-, -α2B or α2C receptor cDNA, were cultured in Dulbecco's Modified Eagle's Medium (DMEM)/Nutrient mixture Ham's F12 (ratio 1:1)(Gibco, Gent-Belgium) supplemented with 10% heat inactivated fetal calf serum (Life Technologies, Merelbeke-Belgium) and antibiotics (100 IU/ml penicillin G, 100 μg/ml streptomycin sulphate, 110 μg/ml pyruvic acid and 100 μg/ml L-glutamine). One day before collection, cells were induced with 5 mM sodiumbutyrate. Upon 80-90% of confluence, cells were scraped in phosphate buffered saline without Ca^2+ and Mg^2+ and collected by centrifugation at 1500×g for 10 min. The cells were homogenised in Tris-HCl 50 mM using an Ultraturrax homogenizer and centrifuged for 10 min at 23,500×g. The pellet was washed once by resuspension and rehomogenization and the final pellet was resuspended in Tris-HCl, divided in 1 ml aliquots and stored at −70° C. Membranes were thawed and re-homogenized in incubation buffer (glycylglycine 25 mM, pH 8.0). In a total volume of 500 μl, 2-10 μg protein was incubated with [^3H]raulwolscine (NET-722) (New England Nuclear, USA) (1 nM final concentration) with or without competitor for 60 min at 25° C. followed by rapid filtration over GF/B filter using a Filtermate196 harvester (Packard, Meriden, Conn.). Filters were rinsed extensively with ice-cold rinsing buffer (Tris-HCl 50 mM pH 7.4). Filter-bound radioactivity was determined by scintillation counting in a Topcount (Packard, Meriden, Conn.) and results were expressed as counts per minute (cpm). Non-specific binding was determined in the presence of 1 μM oxymetazoline for hα2A- and hα2B receptors and 1 μM spiroxatrine for hα2C receptors. Data from assays in the presence of compound were calculated as a percentage of total binding measured in the absence of test compound. Inhibition curves, plotting percent of total binding versus the log value of the concentration of the test compound, were automatically generated, and sigmoidal inhibition curves were fitted using non-linear regression. The pIC50 values of test compounds were derived from individual curves.

[2] = biological target: T2, hα2A receptor (Homo sapiens, UniProt P08913); experiment: Radioligand binding experiment for α2A-adrenergic receptor ([3H]-raulwolscine); conditions: CHO cell membranes with human α2A receptor, [3H]raulwolscine 1 nM
T2 construct: expressed in transfected cells
T2 sequence (P08913 1-465): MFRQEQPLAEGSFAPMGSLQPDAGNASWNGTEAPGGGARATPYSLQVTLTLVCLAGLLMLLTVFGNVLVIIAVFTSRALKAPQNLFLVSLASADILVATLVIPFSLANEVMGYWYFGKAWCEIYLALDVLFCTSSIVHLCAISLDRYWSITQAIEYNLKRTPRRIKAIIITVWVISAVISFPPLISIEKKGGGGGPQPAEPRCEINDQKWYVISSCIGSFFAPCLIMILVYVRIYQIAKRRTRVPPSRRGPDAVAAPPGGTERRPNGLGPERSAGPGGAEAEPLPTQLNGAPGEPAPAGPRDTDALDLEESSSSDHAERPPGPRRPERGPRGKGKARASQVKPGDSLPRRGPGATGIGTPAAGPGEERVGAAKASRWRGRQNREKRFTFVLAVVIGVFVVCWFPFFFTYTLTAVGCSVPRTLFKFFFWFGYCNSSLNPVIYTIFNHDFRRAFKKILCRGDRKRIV
Protocol: as §1

[3] = biological target: T3, h5-HT transporter (Homo sapiens, UniProt P31645); experiment: Radioligand binding experiment for 5-HT transporter ([3H]paroxetine); conditions: human platelet membranes, [3H]paroxetine 0.5 nM
T3 construct: Human platelet membranes (Oceanix Biosciences Corporation, Hanover, Md., USA) were thawed; tissue Oceanix Biosciences Corporation, Hanover, Md., USA; host or cells: human platelet membranes
Protocol: In general, a low concentration of a radioligand with a high binding affinity for a particular receptor or transporter is incubated with a sample of a tissue preparation enriched in a particular receptor or transporter or with a preparation of cells expressing cloned human receptors in a buffered medium. During the incubation, the radioligand binds to the receptor or transporter. When equilibrium of binding is reached, the receptor bound radioactivity is separated from the non-bound radioactivity, and the receptor- or transporter-bound activity is counted. The interaction of the test compounds with the receptor is assessed in competition binding experiments. Various concentrations of the test compound are added to the incubation mixture containing the receptor- or transporter preparation and the radioligand. The test compound in proportion to its binding affinity and its concentration inhibits binding of the radioligand. The radioligand used for hα2A, hα2B and hα2C receptor binding was [^3H]-raulwolscine and for the h5-HT transporter was [^3H]paroxetine. Human platelet membranes (Oceanix Biosciences Corporation, Hanover, Md., USA) were thawed, diluted in buffer (Tris-HCl 50 mM, 120 mM NaCl and 5 mM KCl) and quickly (max 3 s) homogenised with an Ultraturrax homogenizer. In a total volume of 250 μL, 50-100 μg protein was incubated with [^3H]paroxetine (NET-869) (New England Nuclear, USA) (0.5 nM final concentration) with or without competitor for 60 min at 25 ° C. Incubation was stopped by rapid filtration of the incubation mixture over GF/B filters, pre-wetted with 0.1% polyethyleneamine, using a Filtermate196 harvester (Packard, Meriden, Conn.). Filters were rinsed extensively with ice-cold buffer and radioactivity on the filters was counted in a Topcount liquid scintillation counter (Packard, Meriden, Conn.). Data were expressed as cpm. Imipramine (at 1 μM final concentration) was used to determine the non-specific binding. Data from assays in the presence of compound were calculated as a percentage of total binding measured in the absence of test compound. Inhibition curves, plotting percent of total binding versus the log value of the concentration of the test compound, were automatically generated, and sigmoidal inhibition curves were fitted using non-linear regression. The pIC50 values of test compounds were derived from individual curves.

[4] = biological target: T4, hα2B receptor (Homo sapiens, UniProt P18089); experiment: Radioligand binding experiment for α2B-adrenergic receptor ([3H]-raulwolscine)
T4 construct: expressed in transfected cells
T4 sequence (P18089 1-450): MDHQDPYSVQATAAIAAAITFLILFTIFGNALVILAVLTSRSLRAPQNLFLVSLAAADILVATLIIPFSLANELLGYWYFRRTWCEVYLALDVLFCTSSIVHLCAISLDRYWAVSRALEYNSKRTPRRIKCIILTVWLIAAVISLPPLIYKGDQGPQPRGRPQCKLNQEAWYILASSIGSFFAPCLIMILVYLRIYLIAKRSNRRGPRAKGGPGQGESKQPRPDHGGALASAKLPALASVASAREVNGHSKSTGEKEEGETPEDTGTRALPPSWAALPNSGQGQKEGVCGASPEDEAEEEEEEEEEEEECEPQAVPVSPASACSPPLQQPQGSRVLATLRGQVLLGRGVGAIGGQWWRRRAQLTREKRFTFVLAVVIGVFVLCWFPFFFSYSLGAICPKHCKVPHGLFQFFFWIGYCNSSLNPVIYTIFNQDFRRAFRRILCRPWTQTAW
Protocol: as §1

[5] = CHO cell membranes with human α2C receptor, [3H]raulwolscine 1 nM
[6] = CHO cell membranes with human α2C receptor, [3H]raulwolscine 1 nM, read-out: hα2C (pIC50) (converted)
[7] = read-out: hα2A (pIC50) (converted)
[8] = read-out: 5-HTT (pIC50) (converted)

T3 sequence (P31645 whole entry): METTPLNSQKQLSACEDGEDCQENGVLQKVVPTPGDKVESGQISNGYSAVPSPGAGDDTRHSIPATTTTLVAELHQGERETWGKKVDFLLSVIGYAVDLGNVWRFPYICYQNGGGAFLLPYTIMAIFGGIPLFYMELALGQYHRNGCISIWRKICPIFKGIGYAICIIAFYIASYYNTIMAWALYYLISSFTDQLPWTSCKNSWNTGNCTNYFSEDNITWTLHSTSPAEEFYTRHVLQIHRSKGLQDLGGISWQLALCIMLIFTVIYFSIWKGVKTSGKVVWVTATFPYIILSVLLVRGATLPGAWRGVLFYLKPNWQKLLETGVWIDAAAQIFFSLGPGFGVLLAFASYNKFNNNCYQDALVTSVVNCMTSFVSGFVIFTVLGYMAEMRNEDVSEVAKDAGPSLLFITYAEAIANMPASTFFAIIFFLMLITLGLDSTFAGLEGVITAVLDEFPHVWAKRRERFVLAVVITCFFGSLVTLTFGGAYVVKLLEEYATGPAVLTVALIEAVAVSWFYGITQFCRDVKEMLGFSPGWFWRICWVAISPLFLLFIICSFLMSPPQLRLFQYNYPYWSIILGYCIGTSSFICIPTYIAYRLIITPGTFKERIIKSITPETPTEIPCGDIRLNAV

Structure (SMILES) | hα2C (pIC50) [1, 5] | hα2A (pIC50) [2] | 5-HTT (pIC50) [3] | further results
C/C(=C\c1ccccc1)CN1CCN(CC2ON=C3c4cc5ccn(C(=O)C6CC6)c5cc4OCC32)CC1 (racemic) [Compound 12] | 8.5 | 8.2 | 7.7 | 
C/C(=C\c1cccc(F)c1)CN1CCN(CC2ON=C3c4cc5cc[nH]c5cc4OCC32)CC1 (racemic) [Compound 2] | 9.0 | 8.1 | 8.3 | hα2B (pIC50) ([4]; CHO cell membranes with human α2B receptor, [3H]raulwolscine 1 nM): 8.3
C/C(=C\c1ccccc1)CN1CCN(CC2ON=C3c4cccnc4OCC32)CC1 (centres unmarked) [Compound 22, 3-[4-(2-methyl-3-phenyl-allyl)-piperazin-1-ylmethyl]-3a,4-dihydro-3H-2,5-dioxa-1,6-diaza-cyclopenta[a]naphthalene oxalate salt] |  |  |  | IC50 [1, 6]: 79.4 nM; IC50 [2, 7]: 631 nM; IC50 [3, 8]: 6310 nM
COC(=O)Cn1ccc2cc3c(cc21)OCC1C3=NOC1CN1CCN(C/C(C)=C/c2ccccc2)CC1 (centres unmarked) [Compound 10, {3-[4-(2-methyl-3-phenyl-allyl)-piperazin-1-ylmethyl]-3a,4-dihydro-3H-2,5-dioxa-1,7-diaza-dicyclopenta[a,g]naphthlen-7-yl}-acetic acid methyl ester] |  |  |  | IC50 [1]: 0.794 nM; IC50 ([2]; hα2A (pIC50)): 12.6 nM; IC50 ([3]; 5-HTT (pIC50)): 2 nM; IC50 [4]: 5.01 nM
c1ccc2cc(CN3CCN(CC4ON=C5c6ccncc6OCC54)CC3)ccc2c1 (centres unmarked) [Compound 19, 3-(4-naphthalen-2-ylmethyl-piperazin-1-ylmethyl)-3a,4-dihydro-3H-2,5-dioxa-1,7-diaza-cyclopenta[a]naphthalene oxalate salt (1/1)] |  |  |  | IC50 [1, 6]: 39.8 nM; IC50 [2, 7]: 10 nM; IC50 [3, 8]: 100 nM
C/C(=C\c1ccc(F)cc1)CN1CCN(CC2ON=C3c4ccncc4OCC32)CC1.O=C(O)C(=O)O (racemic) [Compound 21] | 7.8 | 8.2 | 7.1 | 
C/C(=C\c1ccccc1)CN1CCN(CC2ON=C3c4cc5ccn(C)c5cc4OCC32)CC1 (centres unmarked) [Compound 7, 7-methyl-3-[4-(2-methyl-3-phenyl-allyl)-piperazin-1-ylmethyl]-3a,4-dihydro-3H,7H-2,5-dioxa-1,7-diaza-dicyclopenta[a,g]naphthlene] |  |  |  | IC50 [1]: 0.794 nM; IC50 ([2]; hα2A (pIC50)): 3.16 nM; IC50 ([3]; 5-HTT (pIC50)): 5.01 nM
CC(=CCN1CCN(CC2ON=C3c4cc5cc[nH]c5cc4OCC32)CC1)c1ccccc1 (racemic) [Compound 6] | 8.6 | 8.1 | 8.3 | 
COCC(=O)n1ccc2cc3c(cc21)OCC1C3=NOC1CN1CCN(C/C(C)=C/c2ccccc2)CC1 (racemic) [Compound 14] | 8.9 | 8.5 | 8.4 | 
CC(=O)n1ccc2cc3c(cc21)OCC1C3=NOC1CN1CCN(C/C(C)=C/c2ccccc2)CC1 (centres unmarked) [Compound 11, 1-{3-[4-(2-methyl-3-phenyl-allyl)-piperazin-1-ylmethyl]-3a,4-dihydro-3H-2,5-dioxa-1,7-diaza-dicyclopenta[a,g]naphthalen7-yl}-ethanone] |  |  |  | IC50 [1]: 1 nM; IC50 ([2]; hα2A (pIC50)): 2.51 nM; IC50 ([3]; 5-HTT (pIC50)): 6.31 nM
C/C(=C\c1cccc(F)c1)CN1CCN(CC2ON=C3c4ccncc4OCC32)CC1 (racemic) [Compound 20] | 8.8 | 9.2 | 7.6 | 
COC(=O)n1ccc2cc3c(cc21)OCC1C3=NOC1CN1CCN(C/C(C)=C/c2ccccc2)CC1 (racemic) [Compound 13] | 8.4 | 8.4 | 7.9 | 
Clc1ccc(CN2CCN(CC3ON=C4c5cc6cc[nH]c6cc5OCC43)CC2)cc1 (racemic) [Compound 5] | 7.4 | 6.7 | 7.8 | 
